According to patent publication US20040009973A1, “Novel potassium channels modulators” (4SC AG, priority 2002, published 2004):

Legend:
[1] = target: T1, BK potassium channel, cloned hSlo (α-hSlo and β-bSlo) in CHO cells (Homo sapiens, UniProt Q12791); test: Em-Assay: membrane potential with voltage sensitive dye DiBAC(4)3, fluorescence plate reader; type: cell-based; conditions: compound 50 μM; NS004 25 or 50 μM; hSlo transfected CHO cells; change in DiBAC(4)3 fluorescence intensity
T1 construct: expressed in transfected cells; host or cells: CHO cells, permanently transfected
Text: The large conductance, voltage-dependent and Ca^2+-activated potassium channel BK is a potassium selective ion channel and belongs to the subfamily of KCa channels. Four BK alpha-subunits form a functional channel that can be regulated by intracellular Ca^2+ concentration, membrane voltage, and other mechanisms like phosphorylation states or beta subunits. To test the biological activity of the compounds, we applied two different techniques, a fluorescence based assay using a voltage sensitive dye (Em-Assay) as well as exploiting electrophysiological methods.
CHO cells permanently transfected with cloned hSlo (α-hSlo and β-bSlo), yielding typical BK potassium currents (Zhou et al., Pflügers Arch., 436: 725-734 (1998), were used for the evaluation of compound activity. Activation or inhibition of BK channels in these cells leads to a change of the electrochemical gradient causing a hyperpolarized or depolarised membrane potential, respectively.
To determine changes in the membrane potential of the cells we used the voltage sensitive dye DiBAC(4)3 (Molecular Probes) in a kinetic assay system using a fluorescent plate reader (Manning and Sontheimer, J. Neurosci, Meth., 91: 73-81 (1999). The anionic bis-oxonol DiBAC(4)3 is a voltage sensitive dye which partitions from the extracellular environment into the cell where it reversibly binds to intracellular proteins, a kinetic process depending on the membrane potential of the cell. At depolarised potentials (i.e. at a reduced K^+ efflux due to blocked K^+ channels) the dye accumulates in the cell leading to an increased fluorescence intensity, due to its increased fluorescence if bound to cellular proteins. At hyperpolarized potentials (i.e. at an increased K^+ efflux due to the opening of K^+ channels), the dye partitions out of the cell causing a decreased fluorescence intensity.
hSlo transfected CHO cells where maintained in DMEM supplemented with 10% FCS, 250 μg/ml Geneticin, 100 μg/ml Hygromycin, 1×HT-Supplement, and 1×Non-essential Amino Acids and cultured in a humidified CO2 incubator. After trypsination, cells where plated with a density of 5×10^4 cells per well on a clear 96-well plate and incubated for 24 h. Cells where washed once with PBS, once with PBS containing 20 mM HEPES (adjusted to pH 7.4 with NaOH) and 2 μM DIBAC(4)3 (DPBS-DiBAC solution). 180 μl of the dPBS-DiBAC solution was then added to the cells and the plate incubated for 30-60 min at 37° C. During this time the dye could partition into the cells and reach a certain steady-state distribution, depending on the resting membrane potential. Test and reference compounds were stored as DMSO stock solutions and diluted in dPBS-DiBAC solution to the desired concentration.
Fluorescence intensity (Ex.: 485 nm/Em.: 520 nm) of each well was detected in the plate reader (Fluostar, BMG) every 60 seconds. After recording the baseline fluorescence for 7 minutes, 20 μl test—and reference compounds were added and the fluorescence intensity was detected for additional 15 minutes. Background was subtracted, data values were normalized and expressed as a change in fluorescence intensity against time. The change in fluorescence intensity caused by the test compounds was evaluated, compared to the effect of the reference compound NS004, and the ratio was determined (see Table I).

[2] = target: BK currents, cloned α-hSlo and β-bSlo in CHO cells (Homo sapiens, UniProt Q12791); test: Electrophysiological studies: whole-cell patch-clamp of BK currents; type: cell-based; conditions: compound 20 μM, steady-state BK current, free internal Ca2+ 1×10^−6M
Method: Electrophysiological Studies:
CHO cells permanently transfected with cloned α-hSlo and β-bSlo were maintained as described above and used for electrophysiological characterisation, The whole-cell configuration of the patch-clamp technique was used to determine the effect of modulators on BK currents in these cells. The cell line expressing functional BK currents (Zhou et al., Pflügers Arch. 436, p.725 (1998)) were plated onto glass cover slips with a density of 1-5×10^4 cells/cover slip, incubated (37° C., 5% CO2) and used for patch-clamp experiments within 24-48 h. Cells were bathed in mammalian ringer solutions containing (in mM): 160NaCl, 4.5KCl, 2CaCl2, 1MgCl2, 10 HEPES, adjusted to pH 7.4, 290-310 mOsm. The internal pipette solution contained (in mM): 160KCl, 2CaCl2, 1MgCl2, 10 HEPES, EGTA was added to reach a free [Ca^2+]internal=1×10^−6M, adjusted to pH 7.2, 290-310 mOsm. Borosilicate pipettes with a resistance of 2-3 MΩ were filled with the internal solution and mounted on an appropriate holder. Prior to measurements a recording chamber was mounted onto the cell-plated cover slips and the cells were perfused with a simple syringe driven perfusion system. Compounds were added in the final concentration ([…]) to the bath solution using the same system. An EPC-9 patch-clamp amplifier with Pulse and PulseFit software (HEKA) was used to record and analyze currents.
After addition of the compounds to the bath solution their modulating effect was determined by the increase or decrease of specific BK currents after reaching steady-state relative to the BK current before application of drugs (see Table II).

T1 sequence (Q12791 1-1178 isoform Q12791-5): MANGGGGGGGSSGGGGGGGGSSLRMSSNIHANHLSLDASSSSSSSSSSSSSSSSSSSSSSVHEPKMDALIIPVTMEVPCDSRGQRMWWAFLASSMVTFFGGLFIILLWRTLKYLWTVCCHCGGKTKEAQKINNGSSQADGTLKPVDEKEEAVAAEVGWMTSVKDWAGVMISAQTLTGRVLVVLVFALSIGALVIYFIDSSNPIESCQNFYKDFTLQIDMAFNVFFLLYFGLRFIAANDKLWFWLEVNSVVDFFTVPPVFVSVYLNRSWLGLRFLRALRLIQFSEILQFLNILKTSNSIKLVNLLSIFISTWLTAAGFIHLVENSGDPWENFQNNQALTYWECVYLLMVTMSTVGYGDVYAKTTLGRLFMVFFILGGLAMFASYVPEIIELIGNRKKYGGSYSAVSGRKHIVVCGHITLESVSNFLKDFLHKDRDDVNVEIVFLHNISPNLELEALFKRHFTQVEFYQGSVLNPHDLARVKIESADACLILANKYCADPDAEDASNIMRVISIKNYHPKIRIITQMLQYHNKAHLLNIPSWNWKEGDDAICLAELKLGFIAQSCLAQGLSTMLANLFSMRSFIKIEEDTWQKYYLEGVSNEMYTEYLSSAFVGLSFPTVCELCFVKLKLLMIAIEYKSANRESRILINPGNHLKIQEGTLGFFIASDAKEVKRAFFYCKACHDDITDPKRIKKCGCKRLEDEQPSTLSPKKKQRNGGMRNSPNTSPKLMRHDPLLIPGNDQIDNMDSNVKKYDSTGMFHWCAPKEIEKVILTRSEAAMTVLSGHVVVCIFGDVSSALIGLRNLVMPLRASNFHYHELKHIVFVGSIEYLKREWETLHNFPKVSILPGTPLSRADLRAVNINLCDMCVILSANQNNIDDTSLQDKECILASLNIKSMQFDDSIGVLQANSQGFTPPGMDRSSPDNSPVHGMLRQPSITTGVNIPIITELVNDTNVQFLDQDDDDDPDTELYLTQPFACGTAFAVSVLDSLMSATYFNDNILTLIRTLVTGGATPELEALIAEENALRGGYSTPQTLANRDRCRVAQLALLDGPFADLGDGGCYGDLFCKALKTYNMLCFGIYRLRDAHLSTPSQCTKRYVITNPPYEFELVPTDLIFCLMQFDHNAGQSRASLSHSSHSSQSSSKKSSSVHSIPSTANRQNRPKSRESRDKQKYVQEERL
T1 sequence (Q28067 2-191 partner limits assumed): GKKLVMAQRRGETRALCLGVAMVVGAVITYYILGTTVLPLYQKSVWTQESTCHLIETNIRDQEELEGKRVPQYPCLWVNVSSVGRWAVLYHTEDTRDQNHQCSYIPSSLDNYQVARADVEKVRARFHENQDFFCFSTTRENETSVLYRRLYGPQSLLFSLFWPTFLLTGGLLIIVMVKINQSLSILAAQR
Sequence of BK currents, cloned α-hSlo and β-bSlo in CHO cells (Q12791 whole entry): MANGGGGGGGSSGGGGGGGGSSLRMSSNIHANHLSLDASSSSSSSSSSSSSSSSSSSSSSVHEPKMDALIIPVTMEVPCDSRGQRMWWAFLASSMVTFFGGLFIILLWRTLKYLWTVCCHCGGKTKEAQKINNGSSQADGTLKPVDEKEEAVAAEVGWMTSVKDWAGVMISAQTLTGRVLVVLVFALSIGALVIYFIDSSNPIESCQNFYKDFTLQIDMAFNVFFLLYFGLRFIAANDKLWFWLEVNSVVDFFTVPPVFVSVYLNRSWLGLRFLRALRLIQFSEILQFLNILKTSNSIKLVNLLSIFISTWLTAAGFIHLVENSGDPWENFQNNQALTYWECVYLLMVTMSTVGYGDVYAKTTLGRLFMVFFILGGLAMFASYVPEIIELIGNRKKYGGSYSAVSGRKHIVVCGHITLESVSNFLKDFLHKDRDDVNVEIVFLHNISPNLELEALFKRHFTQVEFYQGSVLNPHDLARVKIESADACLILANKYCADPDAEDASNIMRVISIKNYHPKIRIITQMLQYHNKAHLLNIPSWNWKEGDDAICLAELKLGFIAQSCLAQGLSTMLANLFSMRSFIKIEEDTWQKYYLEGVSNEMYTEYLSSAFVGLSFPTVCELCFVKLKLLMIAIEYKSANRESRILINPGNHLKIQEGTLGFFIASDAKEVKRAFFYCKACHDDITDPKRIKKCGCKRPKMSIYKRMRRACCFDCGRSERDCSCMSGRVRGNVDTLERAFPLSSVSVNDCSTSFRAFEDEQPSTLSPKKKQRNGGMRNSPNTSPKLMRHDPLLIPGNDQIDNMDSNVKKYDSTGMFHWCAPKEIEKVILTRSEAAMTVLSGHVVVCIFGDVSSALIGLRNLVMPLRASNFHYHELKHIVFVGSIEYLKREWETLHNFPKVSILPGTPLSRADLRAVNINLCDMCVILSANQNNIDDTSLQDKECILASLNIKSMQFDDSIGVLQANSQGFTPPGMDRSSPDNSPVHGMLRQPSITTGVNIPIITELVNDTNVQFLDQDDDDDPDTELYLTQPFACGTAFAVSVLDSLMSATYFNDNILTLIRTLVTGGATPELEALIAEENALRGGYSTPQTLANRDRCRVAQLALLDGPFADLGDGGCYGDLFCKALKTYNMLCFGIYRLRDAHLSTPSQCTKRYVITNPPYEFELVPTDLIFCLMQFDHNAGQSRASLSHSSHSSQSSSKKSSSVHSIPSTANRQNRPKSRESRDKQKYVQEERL
Sequence of BK currents, cloned α-hSlo and β-bSlo in CHO cells (Q28067 2-191 partner): as the sequence (Q28067 2-191 partner limits assumed) above

SMILES | Em effect: ratio of the compound effect compared to the maximal effect of NS004 [1] | Effect: ratio of current increase after application of compound relative to the control current before compound application [2]
FC(F)(F)c1cc(NCc2ccc(Br)cc2)cc(NCc2ccc3ccccc3c2)c1 [Compound 6, N-(4-Bromobenzyl)-N′-naphthalen-2-ylmethyl-5-trifluoromethylbenzene-1,3-diamine] | +++ (>1.5 = +++) | ++ (>1, 1-1.2 = ++)
FC(F)(F)c1cc(NCc2cccc(Cl)c2)cc(NCc2ccc3ccccc3c2)c1 [Compound 7, N-(3-Chlorobenzyl)-N′-naphthalen-2-ylmethyl-5-trifluoromethyl-benzene-1,3-diamine] | +++ (>1.5 = +++) | + (1-1.1 = +)
Clc1cccc(CNc2cccc(NCc3cccc(Cl)c3)c2)c1 [Compound 11] | + (0-1 = +) | + (1-1.1 = +)
Brc1ccc(CNc2cccc(NCc3ccc(Br)cc3)c2)cc1 [Compound 12] | + (0-1 = +) | + (1-1.1 = +)
Clc1cc(NCc2ccc(Br)cc2)ccc1NCc1ccc(Br)cc1 [Compound 13, N^1,N^4-Bis-(4-bromobenzyl)-2-chlorobenzene-1,4-diamine] | +++ (>1.5 = +++) | +++ (>1.2 = +++)
Clc1cccc(CNc2ccc(NCc3cccc(Cl)c3)c(Cl)c2)c1 [Compound 14] | +++ (>1.5 = +++) | + (1-1.1 = +)
Clc1cc(NCc2ccc3ccccc3c2)ccc1NCc1ccc2ccccc2c1 [Compound 15] | +++ (>1.5 = +++) | + (1-1.1 = +)
Fc1cccc(CNc2cccc(NCc3cccc(F)c3)c2)c1 [Compound 35, N,N′-bis-(3-fluorobenzyl)-benzene-1,3-diaimine] | ++ (>1-1.5 = ++) | +++ (>1.2 = +++)
COc1cccc(CNc2cc(Cl)c(NCc3cccc(OC)c3)c(Cl)c2)c1 [Compound 90, 2,6-dichloro-N,N′-bis-(3-methoxy-benzyl)-benzene-1,4-diamine] | + (0-1 = +) | –
Clc1cc(NCc2ccc(-c3csnn3)cc2)cc(Cl)c1NCc1ccc(-c2csnn2)cc1 [Compound 91] | + (0-1 = +) | –
Fc1cccc(Cl)c1CNc1ccc(NCc2c(F)cccc2Cl)cc1 [Compound 92] | + (0-1 = +) | –

Results, then the molecule that gave them:

Em effect: ratio of the compound effect compared to the maximal effect of NS004 [1] | Effect: ratio of current increase after application of compound relative to the control current before compound application [2] | SMILES
+ (0-1 = +) | – | Cc1cc(NCc2c(F)cccc2Cl)ccc1NCc1c(F)cccc1Cl [Compound 93]
+ (0-1 = +) | – | Fc1cccc(Cl)c1CNc1ccc(NCc2c(F)cccc2Cl)c(Cl)c1 [Compound 94]
+ (0-1 = +) | – | Clc1ccccc1CNc1ccc(NCc2ccccc2Cl)cc1 [Compound 95, N,N′-bis-(2-chlorobenzyl)-benzene-1,4-diamine]
+ (0-1 = +) | – | Clc1ccccc1CNc1ccc(NCc2ccccc2Cl)c(Cl)c1 [Compound 96]
+ (0-1 = +) | – | FC(F)(F)c1ccccc1CNc1ccc(NCc2ccccc2C(F)(F)F)cc1 [Compound 97]
+ (0-1 = +) | – | Fc1cc(F)cc(CNc2ccc(NCc3cc(F)cc(F)c3)cc2)c1 [Compound 98, N,N′-bis-(3,5-difluorobenzyl)-benzene-1,4-diamine]
+ (0-1 = +) | – | Fc1ccc(CNc2ccc(NCc3ccc(F)cc3F)cc2)c(F)c1 [Compound 99]
+ (0-1 = +) | – | Fc1cccc(CNc2ccc(NCc3cccc(F)c3)cc2)c1 [Compound 100, N,N′-bis(3-fluorobenzyl)-benzene-1,4-diamine]
+ (0-1 = +) | – | Cc1cc(NCc2ccc(C(F)(F)F)cc2)ccc1NCc1ccc(C(F)(F)F)cc1 [Compound 101, 2-methyl-N1,N4-bis-(4-trifluoromethylbenzyl)-benzene-1,4-diamine]
+ (0-1 = +) | – | Cc1cc(NCc2ccc(F)cc2F)ccc1NCc1ccc(F)cc1F [Compound 102, N^1,N^4-bis-(2,4-difluorobenzyl)-2-methylbenzene-1,4-diamine]
+ (0-1 = +) | – | Cc1cc(NCc2cccc(F)c2)ccc1NCc1cccc(F)c1 [Compound 103, N^1,N^4-bis-(3-fluorobenzyl)-2-methylbenzene-1,4-diamnine]
+ (0-1 = +) | – | FC(F)(F)c1ccccc1CNc1ccc(NCc2ccccc2C(F)(F)F)c(Cl)c1 [Compound 104, 2-chloro-N^1,N^4-bis-(2-trifluoromethylbenzyl)-benzene-1,4-diamine]
+ (0-1 = +) | – | FC(F)(F)c1ccc(CNc2ccc(NCc3ccc(C(F)(F)F)cc3)c(Cl)c2)cc1 [Compound 105]
+ (0-1 = +) | – | Fc1ccc(CNc2ccc(NCc3ccc(F)cc3F)c(Cl)c2)c(F)c1 [Compound 106]
+ (0-1 = +) | – | Fc1cccc(CNc2ccc(NCc3cccc(F)c3)c(Cl)c2)c1 [Compound 107]
